Values quoted from earlier work as cited in US8114906B2, “Essential fatty acids in the treatment and/or inhibition of depression in patients with coronary heart or artery disease” (Abbott Products GmbH, priority 2004, dated 2012).

Legend:
[1] = system: depression in post-myocardial patients; conditions: one study
[2] = system: treatment resistant depression; conditions: EPA added to treatment

| Compound | effects in post-myocardial patients with concomitant depression [1] | symptoms of treatment resistant depression [2] |
| --- | --- | --- |
| CN[C@H]1CC[C@@H](c2ccc(Cl)c(Cl)c2)c2ccccc21 [sertraline] | beneficial effects | – |
| CC/C=C\C/C=C\C/C=C\C/C=C\C/C=C\CCCC(=O)OCC [EPA, eicosapentanoic acid ethyl ester] | – | symptoms remission |
